Source: patent publication US8808742B2, “Compositions and methods for preparing and using same” (Ardea Biosciences, Inc., priority 2008, dated 2014)
Like-named read-outs stand apart in the source and are kept apart here. Each block holds one compound with its values, some of them ahead of it.

Tests used:
[1] = tested on: phosphorylated ERK in MDA-MB-231 breast cancer cells; experiment: Western blotting for phosphorylated ERK in MDA-MB-231 cells (EC50 data); assay type: cell-based; conditions: Homo sapiens, 0.5 h, 30 min compound, EGF stimulation, read-out: MDA pERK ELISA EC50
Protocol: Effects of compounds in the cell were determined by Western blotting for phosphorylated ERK. MDA-MB-231 breast cancer cells were plated in a 48 well plate at 20,000 cells per well and grown in a 37° humidified CO2 incubator. The following day, the growth media (DMEM+10% fetal bovine serum) was removed and replaced with starve media (DMEM+0.1% fetal bovine serum). Cells were incubated in the starve media for sixteen hours and then treated with a range of compound concentrations for thirty minutes. After incubation with compound, cells were stimulated with 100 ng/mlEGF for five minutes. The cells were then lysed and analyzed by Western blot using a monoclonal antibody raised to phosphorylated ERK. The signal was amplified using a secondary antibody conjugated to a near-IR dye and detected on a Licor Odyssey scanner.

[2] = tested on: Colo205 colon cancer tumors; experiment: Colo205 colon tumor xenograft, tumor growth inhibition / delay; assay type: in vivo, nu/nu mice
Protocol: (§1) Human tumors were implanted in nu/nu mice. Compound no. 1021 was administered orally for 14 days once tumors were approximately 100 mm^3 in size. Tumor growth inhibition (TGI) was determined after 14 days of treatment as the reduction in the size of tumors in treated groups versus vehicle controls. The time to endpoint (TTE) was calculated as the time for the tumor to reach the specified endpoint volume or the last day of the study, whichever came first. Treatment outcome was determined from percent tumor growth delay (% TGD), defined as the percent increase in median TTE of treated versus vehicle-treated control mice. Animals were also monitored for regression responses. Levels of pERK in tumors and brain were determined by Western blots and correlated with plasma levels of Compound no. 1021 for the pharmacodynamic/pharmacokinetic study. A number of tumor models were evaluated with different doses and dosing regimens. […] The effect of different dosing regimens was evaluated in A375 xenografts. Although 100 mg/kg Compound no. […] 1021. […]
(§2) Tumor Growth Inhibition for the groups treated with 25 mg/kg Compound no. 1021 were calculated for the indicated tumor xenografts. Tumor Growth Inhibition was measured at the end of once daily dosing for 14 days and calculated according to: […]

[3] = Plasma concentrations in A375 xenograft mice, QD vs BID; assay type: in vivo, Female nu/nu mice; conditions: oral
HT29 colon cancer tumors = experiment: HT29 colon tumor xenograft, tumor growth inhibition; assay type: in vivo, nu/nu mice; conditions: oral 25 mg/kg QD
Protocol: as §1, §2

[4] = Single-dose capsule administration in human cancer patients, concentration-time profiles; conditions: in vivo, oral, capsules of example 95A
Protocol: Administration of the capsules described in example 95A in Human Cancer Patients.Human cancer patients were administered a single dose of the 1 mg or 10 mg capsule composition described above in example 95A. For a 2 mg dose, patients were given 2×1 mg capsules; for a 4 mg dose, patients were given 4×1 mg capsules; for a 6 mg dose, patients were given 6×1 mg capsules; for a 10 mg dose, patients were given 1×10 mg capsule; for a 20 mg dose, patients were given 2×10 mg capsules.
The concentration-time profiles were monitored and are shown in FIG. 4 and in the table below: […]

[5] = tested on: MEK (pERK levels) in Colo205 tumors; experiment: MEK inhibition (pERK Western blot) in Colo205 xenograft tumors vs plasma concentration; assay type: in vivo, Female nu/nu mice; conditions: Colo205 xenografts, pharmacodynamic/pharmacokinetic study
Protocol: (§3) Human tumors were implanted in nu/nu mice. Compound no. 1021 was administered orally for 14 days once tumors were approximately 100 mm^3 in size. Tumor growth inhibition (TGI) was determined after 14 days of treatment as the reduction in the size of tumors in treated groups versus vehicle controls. The time to endpoint (TTE) was calculated as the time for the tumor to reach the specified endpoint volume or the last day of the study, whichever came first. Treatment outcome was determined from percent tumor growth delay (% TGD), defined as the percent increase in median TTE of treated versus vehicle-treated control mice. Animals were also monitored for regression responses. Levels of pERK in tumors and brain were determined by Western blots and correlated with plasma levels of Compound no. […] A number of tumor models were evaluated with different doses and dosing regimens. […] The effect of different dosing regimens was evaluated in A375 xenografts. […]
(§4) Female nu/nu mice implanted with Colo205 tumor cells were given a single dose of vehicle or Compound no. […] Compound levels were determined in plasma samples and pERK levels were determined in tumor and brain samples collected at 2, 6, 12, and 24 hr post-dose. The pERK levels from Western blots were quantified using the LI-COR Odyssey, normalized to total ERK levels and compared to vehicle-treated levels to determine % MEK inhibition. […]

[6] = tested on: brain MEK activity (pERK levels); experiment: Inhibition of brain MEK activity (pERK Western blot) vs plasma concentration; assay type: in vivo, Female nu/nu mice; conditions: Colo205 xenograft mice, pharmacodynamic/pharmacokinetic study
Protocol: as §3, §4

A431 epidermoid tumors = experiment: A431 epidermoid tumor xenograft, tumor growth inhibition / delay; assay type: in vivo, nu/nu mice
Protocol: as §1, §2

A375 melanoma tumors = experiment: A375 melanoma xenograft, tumor growth inhibition / delay; assay type: in vivo, nu/nu mice
Protocol: as §3, §2
Female nu/nu mice were implanted with A375 tumor cells, which were allowed to grow to 100-200 mm^3. […] Tumor Growth Inhibition was measured at the end of once daily dosing for 14 days and calculated according to: […]

[7] = column 2, no head, 2nd regimen of b975: 25 mg/kg BID

EC50 [1]: > 0.2 µM
SMILES: O=S(=O)(Nc1ccc(F)c(F)c1Nc1ccc(-c2cn[nH]c2)cc1F)C1CC1 [compound 0497618]

EC50 [1]: > 0.2 µM
SMILES: O=S(=O)(Nc1ccc(F)c(F)c1Nc1ccc(-c2cccnc2)cc1F)C1CC1 [compound 0497689]

EC50 [1]: 0.015 to 0.1 µM
SMILES: O=S(=O)(Nc1ccc(F)c(F)c1Nc1ccc(I)cc1F)C1CCNCC1 [compound 0561599]

Cmin Free Fraction ([3]; column 1, no head, 1st regimen of b975: 50 mg/kg QD): 0.117 ng/mL
Cmax [3, 7]: 10200 ng/mL
Cmin Free Fraction [3, 7]: 2.48 ng/mL
Cmin Free Fraction ([3]; column 3, no head, 3rd regimen of b975: printed 50 mg/kg QD): 0.059 ng/mL
Cmin Free Fraction ([3]; column 4, no head, 4th regimen of b975: 12.5 mg/kg BID): 0.986 ng/mL
concentration at 12 h ([4]; 2 mg, Dose 2 mg, Day 1, read-out: C12 hr): 0.0378 ng/mL
concentration at 12 h ([4]; 2 mg, Dose 2 mg, Day 35, read-out: C12 hr): 0.0756 ng/mL
concentration at 12 h ([4]; 4 mg, Dose 4 mg, Day 1, read-out: C12 hr): 0.134 ng/mL
concentration at 12 h ([4]; 4 mg, Dose 4 mg, Day 35, read-out: C12 hr): 0.31 ng/mL
concentration at 12 h ([4]; 10 mg, Dose 10 mg, Day 35, read-out: C12 hr): 1.01 ng/mL
concentration at 12 h ([4]; 20 mg, Dose 20 mg, Day 35, read-out: C12 hr): 2.19 ng/mL
SMILES: COc1cc(F)c(F)c(Nc2ccc(I)cc2F)c1NS(=O)(=O)C1(C[C@H](O)CO)CC1 [Compound no. 1021]
% TGD, significance ([2]; 25 or 50 mg/kg QD): statistically significant
TGI, significance ([2]; oral 25 mg/kg QD): Statistically significant
TGI, significance (HT29 colon cancer tumors): Statistically significant
pERK formation in tumors [5]: inhibition of pERK formation
pERK inhibition in brain [6]: minimal inhibition
% TGD, significance (A431 epidermoid tumors; 25 or 50 mg/kg QD): statistically significant
TGI, significance (A431 epidermoid tumors; oral 25 mg/kg QD): Statistically significant
% TGD, significance (A375 melanoma tumors; 25 or 50 mg/kg QD): statistically significant
TGI, significance (A375 melanoma tumors; oral 25 mg/kg QD): Statistically significant

EC50 [1]: 0.015 to 0.1 µM
SMILES: CN(C)CCNCCS(=O)(=O)Nc1ccc(F)c(F)c1Nc1ccc(I)cc1F [compound 0621016]

EC50 [1]: 0.1 to 0.2 µM
SMILES: O=S(=O)(Nc1ccc(F)c(F)c1Nc1ccc(-c2cc[nH]n2)cc1F)C1CC1 [compound 0497654]

EC50 [1]: 0.1 to 0.2 µM
SMILES: Cn1cc(S(=O)(=O)Nc2ccc(F)c(F)c2Nc2ccc(I)cc2F)c(C(F)(F)F)n1 [compound 0621026]

EC50 [1]: 0.015 to 0.1 µM
SMILES: COC(=O)c1ccc(S(=O)(=O)Nc2ccc(F)c(F)c2Nc2ccc(I)cc2F)n1C [compound 0561608]

EC50 [1]: > 0.2 µM
SMILES: COC(=O)c1sccc1S(=O)(=O)Nc1ccc(F)c(F)c1Nc1ccc(I)cc1F [compound 0620926]

EC50 [1]: 0.1 to 0.2 µM
SMILES: CCN(C)CCS(=O)(=O)Nc1ccc(F)c(F)c1Nc1ccc(I)cc1F [compound 0621029]

EC50 [1]: > 0.2 µM
SMILES: O=S(=O)(Nc1ccc(F)c(F)c1Nc1ccc(-c2ccccc2)cc1F)C1CC1 [compound 0497692]

EC50 [1]: > 0.2 µM
SMILES: CC(=O)c1cccc(-c2ccc(Nc3c(NS(=O)(=O)C4CC4)ccc(F)c3F)c(F)c2)c1 [compound 0499266]

EC50 [1]: > 0.2 µM
SMILES: O=S(=O)(Nc1ccc(F)c(F)c1Nc1ccc(-c2ccncc2)cc1F)C1CC1 [compound 0497688]

EC50 [1]: 0.015 to 0.1 µM
SMILES: CNCCS(=O)(=O)Nc1ccc(F)c(F)c1Nc1ccc(I)cc1F [compound 0621002]

EC50 [1]: > 0.2 µM
SMILES: Cn1cc(-c2ccc(Nc3c(NS(=O)(=O)C4CC4)ccc(F)c3F)c(F)c2)cn1 [compound 0497620]

EC50 [1]: > 0.2 µM
SMILES: CS(=O)(=O)Nc1ccc(-c2ccc(Nc3c(NS(=O)(=O)C4CC4)ccc(F)c3F)c(F)c2)cc1 [compound 0499271]

EC50 [1]: 0.1 to 0.2 µM
SMILES: O=S(=O)(Nc1ccc(F)c(F)c1Nc1ccc(I)cc1F)c1ccc(-c2nsc(Cl)n2)s1 [compound 0530701]
